From ChEMBL document CHEMBL1144860, “Spermicidal bacteriocins: lacticin 3147 and subtilosin A” (2008)
Calls of active or inactive are those of the source. The rule behind the calls is not given here.

Tests used:
[1] = system: Spermatozoa; experiment: Spermicidal activity against boar sperm at 200 ug/mL assessed as time required for sperm death; type: functional, Sus scrofa
[2] = system: Spermatozoa; experiment: Spermicidal activity against horse sperm at 800 ug/mL assessed as time required for sperm death; type: functional, Equus caballus
[3] = system: Spermatozoa; experiment: Spermicidal activity against rat sperm at 200 ug/mL assessed as time required for sperm death; type: functional
[4] = system: Spermatozoa; experiment: Spermicidal activity against bovine spermatozoa at 800 ug/mL assessed as time required for sperm death; type: functional, Bos taurus
[5] = system: Spermatozoa; experiment: Spermicidal activity against boar sperm at 50 ug/mL assessed as time required for sperm death; type: functional, cell-based; conditions: Sus scrofa

SMILES	Time [1] [min]	Time [2] [min]	Time [3] [min]	Time [4] [min]	Activity [5]
C/C=C(\NC(=O)[C@H](CC(N)=O)NC(=O)/C(=C/C)NC(=O)[C@H]1CSC[C@H](N)C(=O)N1)C(=O)N[C@@H](Cc1ccccc1)C(=O)N[C@H](C)C(=O)N[C@@H](CC(C)C)C(=O)N[C@@H]1CSC[C@@H](C(=O)N[C@H]2C(=O)N[C@@H](CC(C)C)C(=O)N[C@H]3C(=O)N[C@@H](Cc4cnc[nH]4)C(=O)N[C@@H](CCC(=O)O)C(=O)N[C@@H](CS[C@H]2C)C(=O)N[C@@H](CCSC)C(=O)N[C@@H](C)C(=O)N[C@@H](Cc2c[nH]c4ccccc24)C(=O)N[C@H](C(=O)N[C@@H](CCCCN)C(=O)O)CS[C@H]3C)NC(=O)[C@H](Cc2c[nH]c3ccccc23)NC(=O)[C@H](C)NC(=O)CNC(=O)[C@H](CC(N)=O)NC(=O)[C@H](CC(N)=O)NC(=O)CNC(=O)[C@H](Cc2c[nH]c3ccccc23)NC(=O)[C@H](Cc2ccc(O)cc2)NC(=O)[C@H](CC(=O)O)NC1=O	2.5	12.7	2.3	16.6	
C/C=C(\NC(=O)C(=O)CC)C(=O)N1CCC[C@H]1C(=O)N[C@@H](C)C(=O)N/C(=C\C)C(=O)N1CCC[C@H]1C(=O)N[C@@H](C)C(=O)N[C@H](C(=O)N[C@H](C)C(=O)N[C@H](C(=O)N[C@@H](CC(C)C)C(=O)N[C@H](C)C(=O)N[C@@H](C)C(=O)N[C@@H](Cc1ccc(O)cc1)C(=O)N[C@H](C(=O)N[C@@H]1CSC[C@@H](C(=O)N2CCC[C@H]2C(=O)N[C@H]2C(=O)N[C@@H]([C@@H](C)O)C(=O)N[C@@H](CCCCN)C(=O)N[C@H](C(=O)N[C@H]3C(=O)N[C@@H](CCCNC(=N)N)C(=O)N[C@@H](C)C(=O)N[C@H](C(=O)O)CSC3C)CSC2C)NC(=O)[C@H]([C@@H](C)O)NC(=O)[C@H](CC(N)=O)NC(=O)[C@H]([C@@H](C)O)NC1=O)[C@@H](C)CC)[C@@H](C)CC)[C@@H](C)CC (stereo not given in full)	1.8	4.8	2	2.5	
C/C=C(\NC(=O)C(=O)CC)C(=O)N1CCC[C@H]1C(=O)N[C@@H](C)C(=O)N/C(=C\C)C(=O)N1CCC[C@H]1C(=O)N[C@@H](C)C(=O)N[C@H](C(=O)N[C@H](C)C(=O)N[C@H](C(=O)N[C@@H](CC(C)C)C(=O)N[C@H](C)C(=O)N[C@@H](C)C(=O)N[C@@H](Cc1ccc(O)cc1)C(=O)N[C@H](C(=O)N[C@H]1CSC[C@H](C(=O)N2CCC[C@H]2C(=O)N[C@H]2C(=O)N[C@@H]([C@@H](C)O)C(=O)N[C@@H](CCCCN)C(=O)N[C@H](C(=O)N[C@H]3C(=O)N[C@@H](CCCNC(=N)N)C(=O)N[C@@H](C)C(=O)N[C@@H](C(=O)O)CSC3C)CSC2C)NC(=O)[C@H]([C@@H](C)O)NC(=O)[C@H](CC(N)=O)NC(=O)[C@H]([C@@H](C)O)NC1=O)[C@@H](C)CC)[C@@H](C)CC)[C@@H](C)CC (stereo not given in full)					Active
C/C=C(\NC(=O)[C@H](CC(N)=O)NC(=O)/C(=C\C)NC(=O)[C@H](C)NC(=O)[C@H](C)N)C(=O)N[C@@H](Cc1ccccc1)C(=O)N[C@H](C)C(=O)N[C@@H](CC(C)C)C(=O)N[C@@H]1CSC[C@H](C(=O)N[C@H]2C(=O)N[C@@H](CC(C)C)C(=O)N[C@H]3C(=O)N[C@@H](Cc4cnc[nH]4)C(=O)N[C@@H](CCC(=O)O)C(=O)N[C@@H](CCS[C@H]2C)C(=O)N[C@@H](CCSC)C(=O)N[C@@H](C)C(=O)N[C@@H](Cc2c[nH]c4ccccc24)C(=O)N[C@H](C(=O)N[C@@H](CCCCN)C(=O)O)CSC3C)NC(=O)[C@H](Cc2c[nH]c3ccccc23)NC(=O)[C@H](C)NC(=O)CNC(=O)[C@H](CC(N)=O)NC(=O)[C@H](CC(N)=O)NC(=O)CNC(=O)[C@H](Cc2c[nH]c3ccccc23)NC(=O)[C@H](Cc2ccc(O)cc2)NC(=O)[C@H](CC(=O)O)NC1=O (stereo not given in full)					Active
